Read-outs that look alike come from different tables or passages of the source.
Key:
SH-SY5Y cells = assay: sAPPβ release assay
Procedure: Cells were thawed and seeded at a concentration of around 10000 cells/well in DMEM/F-12 with Glutamax, 10% FCS and 1% non-essential amino acids to a 384-well tissue culture treated plate, 30 μL cell susp/well. The cell plates were then incubated for 7-24 h at 37° C., 5% CO2.
The cell medium was removed, followed by addition of 50 μL compound diluted in DMEM/F-12 with Glutamax, 10% FCS, 1% non-essential amino acids to a final cone of 0.5% DMSO. The compounds were incubated with the cells for 16-17 h (overnight) at 37° C., 5% CO2.
Meso Scale Discovery (MSD) plates were used for the detection of sAPP release. MSD sAPPβ plates were blocked in 1% BSA in Tris wash buffer for 1 h on shake at r.t. and washed 1 time in Tris wash buffer. […] The MSD plates were incubated with shaking at r.t. for 2 h and the media discarded. 10 μL detection antibody was added (1 nM) per well followed by incubation with shaking at r.t. for 2 h and then discarded. 35 μL Read Buffer was added per well and the plates were read in a Meso Scale Discovery SECTOR6000 Imager.

Human BACE1 = biological target: T1, Human BACE1 (Homo sapiens, UniProt P56817); assay: Diluted TR-FRET assay; format: biochemical; details: 50 times less enzyme, 6.5 h reaction time at r.t.; read-out: IC50 BACE1 (dil. TR-FRET)
T1 construct: the soluble part of the human β-Secretase1 (AA1-AA460) was cloned using the BACE1(1-460)-(AVT)-Fc-pGEN-IRES-neo mammalian expression vector; AVT linker (C); made in house
T1 sequence (P56817 22-460): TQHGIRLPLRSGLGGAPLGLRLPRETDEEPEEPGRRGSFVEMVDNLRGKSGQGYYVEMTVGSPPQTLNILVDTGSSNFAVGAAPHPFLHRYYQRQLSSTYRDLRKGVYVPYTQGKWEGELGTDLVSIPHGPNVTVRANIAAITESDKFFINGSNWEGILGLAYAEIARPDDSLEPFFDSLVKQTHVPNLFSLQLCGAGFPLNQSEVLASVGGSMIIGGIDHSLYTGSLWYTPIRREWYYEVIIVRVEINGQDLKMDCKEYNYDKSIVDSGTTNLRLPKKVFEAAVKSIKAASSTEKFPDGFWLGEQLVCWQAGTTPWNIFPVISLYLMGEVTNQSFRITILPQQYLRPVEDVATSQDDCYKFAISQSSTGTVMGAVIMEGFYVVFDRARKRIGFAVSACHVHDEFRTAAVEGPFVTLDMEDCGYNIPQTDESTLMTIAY
Procedure: (§1) The β-secretase enzyme used in the TR-FRET was prepared as follows:
(§2) Human BACE1: the cDNA for the soluble part of the human β-Secretase1 (AA1-AA460) was cloned using the BACE1(1-460)-(AVT)-Fc-pGEN-IRES-neo mammalian expression vector. The gene was fused to the Fe domain of IgG1 (affinity tag) and stably cloned into HEK 293 cells. […]
A multidrop Combi was used for the liquid handling. Enzyme (7 μL) was added to the compound plate (containing 0.8 μL of compound in dimethylsulphoxide). The plate was incubated for 10 minutes. […] The reaction was stopped with the addition of Stop solution (5.5 μL, NaOAC, pH 9). Fluorescence was measured on a Pherastar plate reader using HTRF module. […] 5 reference inhibitors with different affinities were used at all screen occasions in dose response.

Human BACE2 = biological target: T2, Human BACE2 (Homo sapiens, UniProt Q9Y5Z0); assay: TR-FRET assay; format: biochemical; details: substrate 100 nM, pH4.5
T2 construct: the soluble part of the human β-Secretase2 (AA1-AA473) was cloned using BACE2(1-473)-(AVT)-Fc-pDEST12.2 mammalian expression vector; AVT linker (C); made in house
T2 sequence (Q9Y5Z0 21-473): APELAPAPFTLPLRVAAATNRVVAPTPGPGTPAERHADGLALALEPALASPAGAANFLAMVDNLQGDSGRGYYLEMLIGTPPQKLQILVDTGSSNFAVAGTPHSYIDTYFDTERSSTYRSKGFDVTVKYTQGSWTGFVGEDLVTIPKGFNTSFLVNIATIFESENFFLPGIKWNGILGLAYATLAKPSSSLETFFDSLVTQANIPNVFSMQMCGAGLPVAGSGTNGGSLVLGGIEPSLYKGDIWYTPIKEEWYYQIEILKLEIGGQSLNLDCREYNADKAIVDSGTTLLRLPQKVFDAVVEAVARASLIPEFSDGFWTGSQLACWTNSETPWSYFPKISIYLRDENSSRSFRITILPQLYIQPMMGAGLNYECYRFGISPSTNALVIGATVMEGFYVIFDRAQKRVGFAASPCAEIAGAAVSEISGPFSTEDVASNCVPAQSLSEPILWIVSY
Procedure: as §1, §2
A multidrop Combi was used for the liquid handling. Enzyme (7 μL) was added to the compound plate (containing 0.8 μL of compound in dimethylsulphoxide). The plate was incubated for 10 minutes. Substrate (8 μL) was then added, and the reaction proceeded for 17 minutes at r.t. The reaction was stopped with the addition of Stop solution (5.5 μL, NaOAC, pH 9). Fluorescence was measured on a Pherastar plate reader using HTRF module. […] 5 reference inhibitors with different affinities were used at all screen occasions in dose response.

[1] = Homo sapiens, SH-SY5Y, read-out: IC50 Cell (sAPPβ release, nM), SH-SY5Y cells, compounds incubated 16-17 h

Compound	IC50 (SH-SY5Y cells; [1])	IC50 (Human BACE1)	IC50 (Human BACE2; enzyme 2.7 μg/mL)	IC50 (SH-SY5Y cells; read-out: IC50 Cell (sAPPβ release), SH-SY5Y cells, compounds incubated 16-17 h)	IC50 (Human BACE2; enzyme […])
[2H]C1([2H])OC(N)=N[C@]12c1cc(-c3cncc(Cl)c3)ccc1C[C@]21CC[C@@H](OC)[C@H](C)C1 [Compound 7, (1R,1′R,3R,4R)-6′-(5-chloropyridin-3-yl)-4-methoxy-3-methyl-3′H,5″H-dispiro[cyclohexane-1,2′-indene-1′,4″-oxazol]-5″,5″-d2-2″-amine]	0.45 nM	11.7 nM	22.7 nM	–	–
[2H]C1([2H])OC(N)=N[C@]12c1cc(-c3cccnc3)ccc1C[C@@]21CC[C@H](OC)[C@@H](C)C1 [Compound 8, (1S,1′R,3S,4S)-4-methoxy-3-methyl-6′-(pyridin-3-yl)-3′H,5″H-dispiro[cyclohexane-1,2′-indene-1′,4″-oxazol]-5″,5″-d2-2″-amine]	0.76 nM	54.7 nM	716 nM	–	–
CO[C@H]1CC[C@]2(CC1)Cc1ccc(C#CC(C)C)cc1C21COC(N)=N1 (stereo partly drawn) [Compound 12, (1r,4r)-4-methoxy-6′-(3-methylbut-1-yn-1-yl)-3′H,5″H-dispiro[cyclohexane-1,2′-indene-1′,4″-oxazol]-2″-amine]	5.9 nM	135 nM	128 nM	–	–
[2H]C1([2H])OC(N)=N[C@]12c1cc(-c3cccnc3)ccc1C[C@]21CC[C@@H](OC)[C@H](C)C1 [Compound 13, (1R,1′R,3R,4R)-4-methoxy-3-methyl-6′-(pyridin-3-yl)-3′H,5″H-dispiro[cyclohexane-1,2′-indene-1′,4″-oxazol]-5″,5″-d2-2″-amine]	1.7 nM	161 nM	217 nM	–	–
CC#Cc1cncc(-c2ccc3c(c2)C2(COC(N)=N2)[C@]2(CC[C@H](OC)CC2)C3)c1 (stereo partly drawn) [Compound 15, (1r,4r)-4-methoxy-6′-(5-(prop-1-yn-1-yl)pyridin-3-yl)-3′H,5″H-dispiro[cyclohexane-1,2′-indene-1′,4″-oxazol]-2″-amine]	1.1 nM	16 nM	23 nM	–	–
[2H]C1([2H])OC(N)=NC12c1cc(-c3cncc(Cl)c3)ccc1C[C@]21CC[C@@H](OC)CC1 (stereo partly drawn) [Compound 16, (1r,4r)-6′-(5-chloropyridin-3-yl)-4-methoxy-3′H,5″H-dispiro[cyclohexane-1,2′-indene-1′,4″-oxazol]-5″,5″-d2-2″-amine]	3.8 nM	128 nM	105 nM	–	–
[2H]C1([2H])OC(N)=N[C@]12c1cc(-c3cc(F)cc(C#N)c3)ccc1C[C@]21CC[C@@H](OC)[C@H](C)C1 [Compound 17, 3-((1R,1′R,3R,4R)-2″-amino-4-methoxy-3-methyl-3′H,5″H-dispiro[cyclohexane-1,2′-indene-1′,4″-oxazol]-6′-yl-5″,5″-d2)-5-fluorobenzonitrile]	2.1 nM	46.7 nM	30.2 nM	–	–
[2H]C1([2H])OC(N)=N[C@]12c1cc(-c3cc(F)cc(C#N)c3)ccc1C[C@@]21CC[C@H](OC)[C@@H](C)C1 [Compound 19, 3-((1S,1′R,3S,4S)-2″-amino-4-methoxy-3-methyl-3′H,5″H-dispiro[cyclohexane-1,2′-indene-1′,4″-oxazol]-6′-yl-5″,5″-d2)-5-fluorobenzonitrile]	2 nM	244 nM	43.6 nM	–	–
[2H]C1([2H])OC(N)=N[C@]12c1cc(-c3cncc(C)c3)ccc1C[C@]21CC[C@@H](OC)[C@H](C)C1 [Compound 20, (1R,1′R,3R,4R)-4-methoxy-3-methyl-6′-(5-methylpyridin-3-yl)-3′H,5″H-dispiro[cyclohexane-1,2′-indene-1′,4″-oxazol]-5″,5″-d2-2″-amine]	2.9 nM	143 nM	186 nM	–	–
[2H]C1([2H])OC(N)=NC12c1cc(-c3cncc(C)c3)ccc1C[C@@]21CC[C@H](OC)[C@@H](C)C1 (stereo partly drawn) [Compound 21, (1S,3S,4S)-4-methoxy-3-methyl-6′-(5-methylpyridin-3-yl)-3′H,5″H-dispiro[cyclohexane-1,2′-indene-1′,4″-oxazol]-5″,5″-d2-2″-amine]	1.6 nM	67 nM	256 nM	–	–
[2H]C1([2H])OC(N)=N[C@]12c1cc(-c3cc(C#N)cc(OC)c3)ccc1C[C@@]21CC[C@H](OC)[C@@H](C)C1 [Compound 23, 3-((1S,1′R,3S,4S)-2″-amino-4-methoxy-3-methyl-3′H,5″H-dispiro[cyclohexane-1,2′-indene-1′,4″-oxazol]-6′-yl-5″,5″-d2)-5-methoxybenzonitrile]	1.5 nM	7.3 nM	21.4 nM	–	–
[2H]C1([2H])OC(N)=N[C@]12c1cc(-c3cc(C#N)cc(OC)c3)ccc1C[C@]21CC[C@@H](OC)[C@H](C)C1 [Compound 24, 3-((1R,1′R,3R,4R)-2″-amino-4-methoxy-3-methyl-3′H,5″H-dispiro[cyclohexane-1,2′-indene-1′,4″-oxazol]-6′-yl-5″,5″-d2)-5-methoxybenzonitrile]	3.2 nM	18 nM	18 nM	–	–
[2H]C1([2H])OC(N)=N[C@]12c1cc(-c3cncc(C(F)(F)F)c3)ccc1C[C@@]21CC[C@H](OC)[C@@H](C)C1 [Compound 26]	2.6 nM	19.6 nM	78.4 nM	–	–
[2H]C1([2H])OC(N)=N[C@]12c1cc(-c3cccc(Cl)c3)ccc1C[C@@]21CC[C@H](OC)[C@@H](C)C1 [Compound 27]	2.8 nM	12 nM	24.7 nM	–	–
[2H]C1([2H])OC(N)=N[C@]12c1cc(-c3cncc(C)c3)ccc1C[C@@]21CC[C@H](OC)[C@@H](C)C1 [Compound 28]	1.6 nM	67 nM	255 nM	–	–
[2H]C1([2H])OC(N)=N[C@]12c1cc(-c3cncc(C(F)(F)F)c3)ccc1C[C@]21CC[C@@H](OC)[C@H](C)C1 [Compound 29, (1R,1′R,3R,4R)-4-methoxy-3-methyl-6′-(5-(trifluoromethyl)pyridin-3-yl)-3′H,5″H-dispiro[cyclohexane-1,2′-indene-1′,4″-oxazol]-5″,5″-d2-2″-amine]	2.6 nM	55.7 nM	79.2 nM	–	–
CO[C@H]1[C@H](C)C[C@@]2(Cc3ccc(-c4cncc(C#N)c4)cc3[C@@]23COC(N)=N3)C[C@@H]1C [Compound 31, 5-((1r,3R,4r,5S)-2″-amino-4-methoxy-3,5-dimethyl-3′H,5″H-dispiro[cyclohexane-1,2′-indene-1′,4″-oxazol]-6′-yl)nicotinonitrile]	2.4 nM	24.3 nM	90.8 nM	–	–
[2H]C1([2H])OC(N)=NC12c1cc(-c3cc(C#N)cc(OC)c3)ccc1C[C@@]21C[C@@H](C)[C@H](OC)[C@@H](C)C1 (stereo partly drawn) [Compound 32, 3-((1r,3R,4r,5S)-2″-amino-4-methoxy-3,5-dimethyl-3′H,5″H-dispiro[cyclohexane-1,2′-indene-1′,4″-oxazol]-6′-yl-5″,5″-d2)-5-methoxybenzonitrile]	2.8 nM	7.3 nM	26.2 nM	–	–
[2H]C1([2H])OC(N)=N[C@]12c1cc(-c3cncc(Cl)c3)ccc1C[C@]21CC[C@@H](OC)[C@H](C)C1 [Compound 34, (1R,1′R,3R,4R)-6′-(5-chloropyridin-3-yl)-4-methoxy-3-methyl-3′H,5″H-dispiro[cyclohexane-1,2′-indene-1′,4″-oxazol]-5″,5″-d2-2″-amine]	–	11.7 nM	–	0.5 nM	22.7 nM
[2H]C1([2H])OC(N)=N[C@]12c1cc(-c3cccc(Cl)c3)ccc1C[C@]21CC[C@@H](OC)[C@H](C)C1 [Compound 37, (1R,1′R,3R,4R)-6′-(3-chlorophenyl)-4-methoxy-3-methyl-3′H,5″H-dispiro[cyclohexane-1,2′-indene-1′,4″-oxazol]-5″,5″-d2-2″-amine]	3.7 nM	12.8 nM	17.4 nM	–	–
CO[C@H]1CC[C@]2(CC1)Cc1ccc(-c3cncc(C#N)c3)cc1[C@@]21COC(N)=N1 [Compound 38, 5-((1r,1′R,4R)-2″-amino-4-methoxy-3′H,5″H-dispiro[cyclohexane-1,2′-indene-1′,4″-oxazol]-6′-yl)nicotinonitrile]	4.3 nM	166 nM	315 nM	–	–

Reference: patent publication US10053453B2, “Compounds and their use as BACE inhibitors” (AstraZeneca AB, priority 2014, dated 2018)
